The text below walks through data of BindingDB's records for patent US12187742 (Xrad Therapeutics, 2025).

In the experiment the target is DNA-dependent protein kinase catalytic subunit (Homo sapiens, UniProt P78527). Description: DNA-PK Enzyme-Linked Immunosorbent Assay. How it is done:
On day one, coat 96-well plate (ThermoFisher. Cat #: 442404) with GST-p53 (1-101) peptide (purified by Pharmaron, BCS department) by diluting 3 μg of GST-p53 each well with 0.1 M Na2CO3/NaHCO3, pH 9.6. Incubate the plate overnight at 4° C. The second day, remove coating buffer, wash 2× with PBST (1×PBS containing 0.1% Tween-20). Then add DNA-PK enzyme solution (Invitrogen, #PR9107A; the final DNA-PK concentration is 0.1 μg/mL), series dilution compounds (the final top concentration is 100 nM, 3 fold series dilution, with total 10 doses) and ATP solution (the final ATP concentration is 20 μM) to the 96-well plate. Incubate the plate at 25° C. for 1 hour. Then wash 3× with PBST (1×PBS containing 0.1% Tween-20). Block the plate with PBST+ 1% BSA at 4° C. overnight. The third day, wash 4× with PBST (1×PBS containing 0.1% Tween-20). Then add Phospho-p53 primary antibody (cell signaling Technology, #9286, Phospho-p53 (Ser15) (16G8) Mouse mAb) (1/1000) to each well. Seal with plate and incubate the plate for 1 h at 37° C. Wash 4× with PBST (1×PBS containing 0.1% Tween-20), add 100 μL of HRP-linked secondary antibody (Cell signaling Technology, #7076, Anti-mouse IgG, HRP-linked Antibody) (1/1000) to each well. Seal with tape and incubate the plate for 30 min at 37° C. Wash 4× with PBST (1×PBS containing 0.1% Tween-20), add 100 μL of TMB (Cell signaling Technology, #7004) substrate to each well. Seal with tape and incubate the plate for 10 min at 37° C. Then add 100 μL of Stop solution (Cell signaling Technology, #7002) to each well. Read the plate at 450 nm to detect absorption.

pIC50: −log10 of the molar value.

Chain of DNA-dependent protein kinase catalytic subunit (P78527 whole entry): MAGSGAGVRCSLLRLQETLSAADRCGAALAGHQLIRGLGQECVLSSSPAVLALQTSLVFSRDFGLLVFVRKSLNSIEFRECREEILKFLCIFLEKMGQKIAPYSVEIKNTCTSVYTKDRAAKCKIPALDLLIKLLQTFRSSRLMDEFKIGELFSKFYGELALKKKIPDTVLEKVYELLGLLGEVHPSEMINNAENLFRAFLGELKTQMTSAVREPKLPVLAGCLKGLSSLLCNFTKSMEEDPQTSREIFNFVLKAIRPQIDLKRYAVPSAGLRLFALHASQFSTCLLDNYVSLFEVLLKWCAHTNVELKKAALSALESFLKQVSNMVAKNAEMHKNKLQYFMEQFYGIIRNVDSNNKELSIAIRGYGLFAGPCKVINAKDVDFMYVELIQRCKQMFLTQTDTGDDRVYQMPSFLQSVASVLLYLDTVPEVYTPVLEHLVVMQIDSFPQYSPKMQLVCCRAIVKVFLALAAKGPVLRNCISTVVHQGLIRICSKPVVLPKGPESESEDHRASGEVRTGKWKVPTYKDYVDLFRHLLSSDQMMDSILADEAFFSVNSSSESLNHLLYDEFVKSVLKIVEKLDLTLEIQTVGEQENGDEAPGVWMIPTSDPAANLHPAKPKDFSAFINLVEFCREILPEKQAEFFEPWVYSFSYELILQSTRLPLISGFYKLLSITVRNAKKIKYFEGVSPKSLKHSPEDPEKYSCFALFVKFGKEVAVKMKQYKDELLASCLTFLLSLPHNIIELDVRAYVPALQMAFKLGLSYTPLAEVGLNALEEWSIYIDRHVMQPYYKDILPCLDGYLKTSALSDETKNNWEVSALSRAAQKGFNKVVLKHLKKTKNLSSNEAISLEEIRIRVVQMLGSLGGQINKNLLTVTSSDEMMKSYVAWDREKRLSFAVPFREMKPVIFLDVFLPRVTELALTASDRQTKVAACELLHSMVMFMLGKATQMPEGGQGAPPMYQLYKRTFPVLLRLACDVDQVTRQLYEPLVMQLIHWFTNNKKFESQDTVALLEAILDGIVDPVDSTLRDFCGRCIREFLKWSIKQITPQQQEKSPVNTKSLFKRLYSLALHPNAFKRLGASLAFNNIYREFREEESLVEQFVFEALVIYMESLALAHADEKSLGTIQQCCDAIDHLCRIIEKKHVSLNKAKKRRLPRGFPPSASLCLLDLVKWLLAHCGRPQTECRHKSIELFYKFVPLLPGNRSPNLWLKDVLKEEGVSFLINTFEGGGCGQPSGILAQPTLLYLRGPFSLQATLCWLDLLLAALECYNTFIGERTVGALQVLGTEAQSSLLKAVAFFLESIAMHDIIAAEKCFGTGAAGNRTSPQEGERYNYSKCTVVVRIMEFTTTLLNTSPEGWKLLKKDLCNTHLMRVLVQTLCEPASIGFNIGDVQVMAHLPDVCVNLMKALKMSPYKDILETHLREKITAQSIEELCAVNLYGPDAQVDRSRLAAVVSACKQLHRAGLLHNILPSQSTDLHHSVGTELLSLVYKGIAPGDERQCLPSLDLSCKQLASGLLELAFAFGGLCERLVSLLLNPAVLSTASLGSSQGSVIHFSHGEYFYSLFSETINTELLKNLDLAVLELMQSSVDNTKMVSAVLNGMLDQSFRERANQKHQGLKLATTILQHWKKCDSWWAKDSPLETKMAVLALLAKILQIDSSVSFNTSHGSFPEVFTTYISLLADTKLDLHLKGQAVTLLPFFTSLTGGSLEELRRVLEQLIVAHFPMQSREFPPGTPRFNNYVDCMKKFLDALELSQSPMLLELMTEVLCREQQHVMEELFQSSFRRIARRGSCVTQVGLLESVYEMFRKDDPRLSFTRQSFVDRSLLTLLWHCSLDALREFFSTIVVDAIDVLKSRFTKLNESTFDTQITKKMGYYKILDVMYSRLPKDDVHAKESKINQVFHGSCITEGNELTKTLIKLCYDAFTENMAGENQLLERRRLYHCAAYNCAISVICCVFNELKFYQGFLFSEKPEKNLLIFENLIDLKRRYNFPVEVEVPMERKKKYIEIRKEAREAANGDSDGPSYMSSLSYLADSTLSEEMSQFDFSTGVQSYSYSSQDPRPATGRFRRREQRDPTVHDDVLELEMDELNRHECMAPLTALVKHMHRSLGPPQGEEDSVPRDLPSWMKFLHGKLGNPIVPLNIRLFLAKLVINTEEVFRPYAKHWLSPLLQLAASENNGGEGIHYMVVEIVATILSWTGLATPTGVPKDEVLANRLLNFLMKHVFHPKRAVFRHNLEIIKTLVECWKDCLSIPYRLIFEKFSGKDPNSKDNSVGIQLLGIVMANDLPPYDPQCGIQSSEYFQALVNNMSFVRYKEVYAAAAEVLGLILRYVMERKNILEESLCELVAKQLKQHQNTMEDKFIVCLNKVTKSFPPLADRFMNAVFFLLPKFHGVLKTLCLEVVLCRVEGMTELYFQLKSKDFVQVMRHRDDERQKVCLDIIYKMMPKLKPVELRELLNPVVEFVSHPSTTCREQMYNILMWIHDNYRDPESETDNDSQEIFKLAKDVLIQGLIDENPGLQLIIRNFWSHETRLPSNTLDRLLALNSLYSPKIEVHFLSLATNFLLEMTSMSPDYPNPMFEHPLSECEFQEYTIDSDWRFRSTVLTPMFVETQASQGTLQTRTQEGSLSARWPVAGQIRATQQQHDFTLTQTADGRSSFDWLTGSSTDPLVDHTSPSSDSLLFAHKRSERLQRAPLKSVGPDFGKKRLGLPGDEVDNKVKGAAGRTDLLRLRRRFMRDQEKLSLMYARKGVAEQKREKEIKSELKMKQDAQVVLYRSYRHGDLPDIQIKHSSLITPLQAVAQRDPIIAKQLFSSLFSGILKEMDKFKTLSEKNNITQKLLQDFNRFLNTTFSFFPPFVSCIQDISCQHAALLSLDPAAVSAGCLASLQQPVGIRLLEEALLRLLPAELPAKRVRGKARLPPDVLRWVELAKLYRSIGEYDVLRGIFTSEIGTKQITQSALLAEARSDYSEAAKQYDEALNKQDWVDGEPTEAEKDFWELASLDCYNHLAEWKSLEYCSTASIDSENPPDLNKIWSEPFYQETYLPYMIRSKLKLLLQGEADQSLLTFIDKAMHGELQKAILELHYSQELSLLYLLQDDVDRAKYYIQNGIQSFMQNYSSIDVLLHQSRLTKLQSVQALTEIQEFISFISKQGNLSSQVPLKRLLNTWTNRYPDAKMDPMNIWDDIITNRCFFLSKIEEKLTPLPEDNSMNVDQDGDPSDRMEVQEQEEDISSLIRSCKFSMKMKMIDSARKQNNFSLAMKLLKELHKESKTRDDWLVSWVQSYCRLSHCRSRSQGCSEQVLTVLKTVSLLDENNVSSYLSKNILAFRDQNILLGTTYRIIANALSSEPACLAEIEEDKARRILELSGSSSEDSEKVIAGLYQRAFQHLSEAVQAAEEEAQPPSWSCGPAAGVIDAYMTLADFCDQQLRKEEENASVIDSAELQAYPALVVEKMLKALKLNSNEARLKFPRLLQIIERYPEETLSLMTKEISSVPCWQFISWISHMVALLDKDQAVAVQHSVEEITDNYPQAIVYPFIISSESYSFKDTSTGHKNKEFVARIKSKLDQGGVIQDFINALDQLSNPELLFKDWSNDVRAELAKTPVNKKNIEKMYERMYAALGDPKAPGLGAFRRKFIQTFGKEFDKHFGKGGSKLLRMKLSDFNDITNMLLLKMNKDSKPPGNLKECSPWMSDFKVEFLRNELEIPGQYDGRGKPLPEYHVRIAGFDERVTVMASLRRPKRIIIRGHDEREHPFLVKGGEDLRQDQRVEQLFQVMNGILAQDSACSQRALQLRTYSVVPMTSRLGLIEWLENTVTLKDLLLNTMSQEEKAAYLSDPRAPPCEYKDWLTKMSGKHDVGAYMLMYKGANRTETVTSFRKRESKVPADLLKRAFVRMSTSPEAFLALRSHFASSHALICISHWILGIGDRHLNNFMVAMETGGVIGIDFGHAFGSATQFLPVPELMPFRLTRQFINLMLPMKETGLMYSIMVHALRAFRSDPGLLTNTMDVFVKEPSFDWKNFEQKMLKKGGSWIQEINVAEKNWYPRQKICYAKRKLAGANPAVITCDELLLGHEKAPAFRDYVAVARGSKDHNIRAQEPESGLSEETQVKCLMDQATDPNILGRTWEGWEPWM

As usually defined, the pIC50 is −log10 of the IC50, conventionally taken in molar units. Higher therefore signals a small IC50. As for `CN(C)CCCOc1ncc(-c2ccc3ncc4c(c3c2)C2(CC2)C(=O)N4C)cc1NS(=O)(=O)c1cccs1` [US12187742, Example 120], the pIC50 was > 9.30.

In the case of `CN(C)CCCOc1ncc(-c2ccc3ncc4c(c3c2)C2(CC2)C(=O)N4C)cc1NS(=O)(=O)c1ccc(C(F)(F)F)cc1` [US12187742, Example 108], the pIC50 was > 9.30.

Take `CC(C)NCCOc1ncc(-c2ccc3ncc4c(c3c2F)C2(CCC2)C(=O)N4C)cc1NS(C)(=O)=O` [US12187742, Example 556]: the pIC50 is > 9.30.

As to `CN(C)CCCOc1ncc(-c2ccc3ncc4c(c3c2)C2(CC2)C(=O)N4C)cc1NS(=O)(=O)c1cccnc1` [US12187742, Example 85], the pIC50 was > 9.30.

Turning to `COc1ncc(-c2ccc3ncc4c(c3c2)C2(CC2)C(=O)N4C)cc1NS(=O)(=O)c1cccc(C(C)O)c1` (configuration not stated) [US12187742, Example 18], the pIC50 was > 9.30.

Consider `CN1C(=O)C2(CC2)c2c1cnc1ccc(-c3cnc(OCCCN4CCCC4)c(NS(=O)(=O)C4CC4)c3)cc21` [US12187742, Example 60], for which the pIC50 was > 9.30.

Turning to `CN1CC=C(c2ncc(-c3ccc4ncc5c(c4c3)C3(CCC3)C(=O)N5C)cc2NS(C)(=O)=O)CC1` [US12187742, Example 276], the pIC50 is > 9.30.
